Assay results: ChEMBL document CHEMBL1177695, “Discovery and development of natural product-derived chemotherapeutic agents based on a medicinal chemistry approach” (J Nat Prod, 2010)
Converted amounts (≈) assume the structure as drawn.

Key:
MCF7 [1] = assay: Cytotoxicity against human MCF7 cells after 72 hrs by MTT assay; format: functional, cell-based; details: MCF7, 72 h
[2] = Cytotoxicity against human Hep3B cells after 72 hrs by MTT assay; format: functional, cell-based, Hep 3B2
MDA-MB-231 [3] = assay: Cytotoxicity against human MDA-MB-231 cells after 72 hrs by MTT assay; format: functional, cell-based; details: MDA-MB-231, 72 h
LNCaP = assay: Cytotoxicity against human LNCAP cells after 2 days; format: functional, cell-based; details: 48 h
PC-3 [4] = assay: Cytotoxicity against human PC3 cells after 2 days; format: functional, cell-based; details: PC-3, 48 h
[5] = tested on: Human immunodeficiency virus 1; assay: Antiviral activity against HIV1 infected in human CEM-SS cells assessed as inhibition of viral replication; format: functional, organism-based; details: Human immunodeficiency virus 1, CEM-SS
[6] = tested on: Human immunodeficiency virus 1; assay: Antiviral activity against HIV1 3B infected in H9 cells assessed as inhibition of viral replication by p24 antigen ELISA; format: functional, organism-based; details: Human immunodeficiency virus 1, 3B, H9; read-out: EC50
[7] = Therapeutic index, ratio of IC50 for human H9 cells to EC50 for HIV 3B; format: cell-based; details: read-out: TI
[8] = Oral bioavailability in rat; format: ADME, organism-based; details: in vivo
Aureobasidium pullulans = assay: Antifungal activity against Aureobasidium pullulans; format: functional
Pseudomonas fluorescens = assay: Antibacterial activity against Pseudomonas fluorescens; format: functional
Escherichia coli = assay: Antibacterial activity against Escherichia coli; format: functional
Pseudomonas aeruginosa = assay: Antibacterial activity against Pseudomonas aeruginosa; format: functional
Aspergillus niger = assay: Antifungal activity against Aspergillus niger; format: functional
Staphylococcus aureus = assay: Antibacterial activity against Staphylococcus aureus; format: functional
[9] = Growth inhibition of human ovarian cancer cells; format: functional; details: Cancer cell lines
[10] = Growth inhibition of human colon cancer cells; format: functional; details: Cancer cell lines
[11] = Growth inhibition of human lung cancer cells; format: functional; details: Cancer cell lines
[12] = Growth inhibition of human CNS cancer cells; format: functional; details: Cancer cell lines
[13] = Growth inhibition of human leukemia cells; format: functional; details: Leukemia cell
[14] = Growth inhibition of human melanoma cells; format: functional; details: Melanoma cell
[15] = Growth inhibition of human renal cancer cells; format: functional; details: Cancer cell lines
A549 [16] = assay: Cytotoxicity against human A549 cells; format: functional, cell-based
OVCAR-3 = assay: Antitumor activity against human OVCAR-3 cells xenografted in mouse assessed as increase in mouse life span; format: functional, cell-based
[17] = Inhibition of tubulin polymerization
[18] = Cytotoxicity against human KBVIN cells after 3 days by sulforhodamine B assay; format: functional, cell-based; details: 72 h
KB [19] = assay: Selectivity ratio of EC50 for human KB cells to EC50 for vincristine-resistant human KB cells; format: functional
HUVEC = assay: Cytotoxicity against HUVEC after 3 days by sulforhodamine B assay; format: cell-based; details: Homo sapiens, 72 h
PC-3 [20] = assay: Cytotoxicity against human PC3 cells after 3 days by sulforhodamine B assay; format: functional, cell-based; details: PC-3, 72 h
KB [21] = assay: Cytotoxicity against human KB cells after 3 days by sulforhodamine B assay; format: functional, cell-based; details: 72 h
HCT-8 = assay: Cytotoxicity against human HCT8 cells after 3 days by sulforhodamine B assay; format: functional, cell-based; details: HCT-8, 72 h
A549 [22] = assay: Cytotoxicity against human A549 cells after 3 days by sulforhodamine B assay; format: functional, cell-based; details: A549, 72 h
1A9 = assay: Cytotoxicity against human 1A9 cells after 3 days by sulforhodamine B assay; format: functional, cell-based; details: 1A9, 72 h
A-431 = assay: Cytotoxicity against human A431 cells after 3 days by sulforhodamine B assay; format: functional, cell-based; details: A-431, 72 h
MCF7 [23] = assay: Cytotoxicity against human MCF7 cells; format: functional; details: read-out: ED50 (the source's name)
SK-BR-3 [24] = assay: Cytotoxicity against human SK-BR-3 cells overexpressing HER2; format: functional; details: read-out: ED50 (the source's name)
ZR-75-1 [25] = assay: Cytotoxicity against human ZR-75-1 cells; format: functional; details: read-out: ED50 (the source's name)
MDA-MB-231 [26] = assay: Cytotoxicity against human MDA-MB-231 cells after 72 hrs by sulforhodamine B assay; format: functional; details: MDA-MB-231, 72 h, read-out: ED50 (the source's name)
SK-BR-3 [27] = assay: Cytotoxicity against human SK-BR-3 cells after 72 hrs by sulforhodamine B assay; format: functional; details: SK-BR-3, 72 h, read-out: ED50 (the source's name)
ZR-75-1 [28] = assay: Cytotoxicity against human ZR-75-1 cells after 72 hrs by sulforhodamine B assay; format: functional; details: ZR-75-1, 72 h, read-out: ED50 (the source's name)
MCF7 [29] = assay: Cytotoxicity against human MCF7 cells after 72 hrs by sulforhodamine B assay; format: functional; details: MCF7, 72 h, read-out: ED50 (the source's name)
[30] = Antitumor activity against rat Walker 256 cells allografted in rat at 2.5 mg/kg relative to control; format: functional
Hep-2 (human) = assay: Cytotoxicity against human Hep-2 cells; details: read-out: ED50 (the source's name)
P388 = assay: Antitumor activity against mouse P388 cells allografted in mouse at 8 mg/kg relative to control; format: functional
[31] = tested on: Human immunodeficiency virus 1; assay: Antiviral activity against HIV1 PI-R; format: functional, organism-based; details: Human immunodeficiency virus 1, PI-R
[32] = tested on: Human immunodeficiency virus 1; assay: Antiviral activity against HIV1 NL4-3; format: functional, organism-based; details: Human immunodeficiency virus 1, NL4-3
melanoma (human) = assay: Growth inhibition of human melanoma cells; details: Melanoma tumor cell line
KB [33] = assay: Cytotoxicity against CPT-resistant human KB cells […] reduced level of topoisomerase; format: functional, cell-based
[34] = Cytotoxicity against vincristine-resistant human KB/VCR cells overexpressing P-glycoprotein; format: functional, cell-based
[35] = Cytotoxicity against human KB-7d cells expressing multidrug-resistant protein; format: functional, cell-based; details: KB7D
KB [36] = assay: Cytotoxicity against human KB cells; format: functional, cell-based

## O=C1C=CC(O)(c2cc(=O)c3c(ccc4ccccc43)o2)C=C1
MCF7 [1]
  IC50: 0.66 µg/mL (≈ 2.17 µM)
[2]
  IC50: 0.3 µg/mL (≈ 0.986 µM)
MDA-MB-231 [3]
  IC50: 0.39 µg/mL (≈ 1.28 µM)

## CCOC(=O)/C=C/C(C(=O)/C=C/c1ccc(OC)c(OC)c1)=C(O)\C=C\c1ccc(OC)c(OC)c1
LNCaP
  IC50: 200 nM
PC-3 [4]
  IC50: 1000 nM

## Cc1cc(=S)oc2c3c(ccc12)OC(C)(C)[C@H](OC(=O)C12CCC(C)(C(=O)O1)C2(C)C)[C@@H]3OC(=O)C12CCC(C)(C(=O)O1)C2(C)C (some centres undefined)
[5]
  EC50: 64 nM

## Cc1c(CO)c(=O)oc2c3c(ccc12)OC(C)(C)[C@H](OC(=O)C12CCC(C)(C(=O)O1)C2(C)C)[C@@H]3OC(=O)C12CCC(C)(C(=O)O1)C2(C)C (some centres undefined)
[6]
  EC50: 4.2 nM
[7]
  selectivity ratio: 6000
[8]
  bioavailability: 15%

## O=C1c2ccccc2C(=O)c2c(NCC3CO3)ccc(NCC3CO3)c21 (centres undefined)
Aureobasidium pullulans
  MIC: 0.13 µg/mL (≈ 0.371 µM)
Pseudomonas fluorescens
  MIC: 0.13 µg/mL (≈ 0.371 µM)
Escherichia coli
  MIC: 250 µg/mL (≈ 714 µM)
Pseudomonas aeruginosa
  MIC: 63 µg/mL (≈ 180 µM)
Aspergillus niger
  MIC: 0.13 µg/mL (≈ 0.371 µM)
Staphylococcus aureus
  MIC: 0.13 µg/mL (≈ 0.371 µM)

## COC(=O)[C@]12OC[C@]34[C@H]([C@@H](O)[C@@H]1O)[C@@]1(C)CC(=O)C(O)=C(C)[C@@H]1C[C@H]3OC(=O)[C@H](OC(=O)/C=C(/C)C(F)(F)F)[C@@H]24
[9]
  GI50: 100 nM
[10]
  GI50: 100 nM
[11]
  GI50: 100 nM
[12]
  GI50: 100 nM
[13]
  GI50: 100 nM
[14]
  GI50: 100 nM
[15]
  GI50: 100 nM

## COc1ccc2c(CNCCCCCCO)cc3cc4c(cc3c2c1)OCO4 [listing 1 of 2 here]
A549 [16]; a549
  IC50: 160 nM

## COc1ccc2c(CNCCCCCCO)cc3cc4c(cc3c2c1)OCO4 [listing 2 of 2 here]
A549 [16]; Homo sapiens, A549
  IC50: 130 nM

## O=c1cc(-c2ccccc2F)[nH]c2cc3c(cc12)OCO3
OVCAR-3
  Activity: 130%
[17]
  IC50: 850 nM

## CCC1=C(O)c2c(oc(-c3ccc(C)cc3)cc2=O)C(CC)(CC)C1=O [6,8,8-TRIETHYL-4-METHYL DESMOSDUMOTIN B]
[18]
  EC50: 0.03 µg/mL (≈ 0.0851 µM)
KB [19]
  Ratio EC50: >460

## CCCC1=C(OC)C(CCC)(CCC)C(=O)/C(=C(O)\C=C\c2ccc(Br)cc2)C1=O
HUVEC
  EC50: 0.9 µg/mL (≈ 1.89 µM)
PC-3 [20]
  EC50: 0.9 µg/mL (≈ 1.89 µM)
KB [21]
  EC50: 0.9 µg/mL (≈ 1.89 µM)
HCT-8
  EC50: 0.9 µg/mL (≈ 1.89 µM)
A549 [22]
  EC50: 0.9 µg/mL (≈ 1.89 µM)
1A9
  EC50: 0.9 µg/mL (≈ 1.89 µM)
[18]
  EC50: 0.9 µg/mL (≈ 1.89 µM)
A-431
  EC50: 0.9 µg/mL (≈ 1.89 µM)

## CCc1cccc2c1ccc1c3occ(C)c3c(=O)oc21
MCF7 [23]
  EC50: 0.45 µg/mL (≈ 1.62 µM)
SK-BR-3 [24]
  EC50: 0.1 µg/mL (≈ 0.359 µM)
ZR-75-1 [25]
  EC50: 0.18 µg/mL (≈ 0.647 µM)

## COc1cccc2c1ccc1c3occ(C)c3c(=O)oc21
MDA-MB-231 [26]
  EC50: 6.4 µg/mL (≈ 22.8 µM)
SK-BR-3 [27]
  EC50: 0.2 µg/mL (≈ 0.714 µM)
ZR-75-1 [28]
  EC50: 0.1 µg/mL (≈ 0.357 µM)
MCF7 [29]
  EC50: 2.3 µg/mL (≈ 8.21 µM)

## C=C1C(=O)O[C@@H]2C[C@@H](C)[C@@H]3C=CC(=O)[C@@]3(C)[C@@H](O)[C@H]12 [HELENALIN]
[30]
  T/C: 316%
Hep-2 (human)
  EC50: 0.08 µg/mL (≈ 0.305 µM)
P388
  T/C: 162%

## CCCc1cccc2c1ccc1c3occ(C)c3c(=O)oc21
MDA-MB-231 [26]
  EC50: > 10 µg/mL
SK-BR-3 [27]
  EC50: 0.1 µg/mL (≈ 0.342 µM)
ZR-75-1 [28]
  EC50: 0.3 µg/mL (≈ 1.03 µM)
MCF7 [29]
  EC50: 1.2 µg/mL (≈ 4.1 µM)

## CCC1=C(O)c2c(oc(-c3ccc(CC)cc3)cc2=O)C(CC)(CC)C1=O [6,8,8-TRIETHYL-4-ETHYL DESMOSDUMOTIN B]
[18]
  EC50: 0.025 µg/mL (≈ 0.0682 µM)
KB [19]
  Ratio EC50: 320

## CC(C)C[C@@H](NC(=O)[C@]12CCC(C)(C)C=C1[C@H]1CC[C@@H]3[C@@]4(C)CC[C@H](OC(=O)CC(C)(C)C(=O)O)C(C)(C)[C@@H]4CC[C@@]3(C)[C@]1(C)CC2)C(=O)O
[31]
  EC50: 21 nM
[32]
  EC50: 8.5 nM

## C=C1C(=O)O[C@@H]2C[C@@H](C)[C@H]3C=CC(=O)[C@@]3(C)[C@@H](OC(=O)CCCC(=O)O[C@H]3[C@H]4C(=C)C(=O)O[C@@H]4C[C@H](C)[C@H]4C=CC(=O)[C@]43C)[C@@H]12
P388
  T/C: 195%

## COC1=C(C)C(O)=C(C(=O)/C=C/c2ccccc2)C(=O)C1(C)C [DESMOSDUMOTIN C]
HUVEC
  EC50: 3 µg/mL (≈ 9.6 µM)
PC-3 [20]
  EC50: 3 µg/mL (≈ 9.6 µM)
KB [21]
  EC50: 3 µg/mL (≈ 9.6 µM)
HCT-8
  EC50: 3 µg/mL (≈ 9.6 µM)
A549 [22]
  EC50: 3 µg/mL (≈ 9.6 µM)
1A9
  EC50: 3 µg/mL (≈ 9.6 µM)
[18]
  EC50: 3 µg/mL (≈ 9.6 µM)
A-431
  EC50: 3 µg/mL (≈ 9.6 µM)

## O=C1c2ccsc2C(=O)c2sc(CO)cc21
Melanoma (human)
  GI50: 18.2 nM

## COc1ccc2c(c1)c(=O)ccc1cc(OC)c(OC)c(OC)c12
KB [33]
  EC50: 0.042 µg/mL (≈ 0.129 µM)
[34]
  EC50: 0.016 µg/mL (≈ 0.049 µM)
[17]
  IC50: 1000 nM
[35]
  EC50: 0.024 µg/mL (≈ 0.0735 µM)
KB [36]
  EC50: 0.029 µg/mL (≈ 0.0889 µM)
